Measurements taken from US11866689B2, “Splice-switching oligonucleotides and methods of use” (Duke University, priority 2018, dated 2024).

Legend:
Format in all cases: cell-based
ARv7 [1] = test: ARv7 level after SSO transfection of prostate cancer cells (RT-qPCR, Western blot); settings: for ARv7 (fold change from Scramble): vs Scramble/Scr control
Description: A total of 6.25, 25, 100, or 400 nM of ARv7 SSO-6, 100 nM of ARv7 SSO-6ext, or 100 or 400 nM of Scrambled SSO was diluted in Opti-MEM and mixed with 2 uL Dharmafect 1 (LN95) or RNAiMax (VCaP) diluted in Opti-MEM for a total of 200 uL. The SSO-transfection reagent mixtures were incubated for 10 minutes at room temperature followed by plating in a 12 well plate. A total of 250,000 cells diluted in 800 uL Optimem were seeded atop the SSO-transfection reagent mixtures and incubated for 4 hours at 37° C. and 5% CO2 in a humidified incubator. Media was replaced with complete media after 4 hours (RPMI+10% charcoal stripped FBS for LN95 cells and DMEM+10% FBS for VCaP cells). After an additional 72 or 96 hours of incubation, media was removed and cells were collected in RNA lysis buffer or RIPA buffer containing protease inhibitor (Thermo Fisher).
RNA was extracted using the Quick-RNA Miniprep kit (Zymo Research) following manufacturer's protocol. RNA was eluted in water and quantified using a Qubit fluorometer (Thermo Fisher). Reverse transcription (RT) reactions were performed using the ABI High Capacity cDNA Reverse Transcription Kit (Thermo Fisher) using 1 ug of RNA. RT reactions were incubated following manufacturer's protocol in a SimpliAmp thermocycler (Life Technologies). […] RT-qPCR was run on a ViiA7 Real-Time PCR System (Applied Biosystems) using the following conditions: 95° C. for 2 minutes, 40×(95 C for 1 second, 60° C. for 20 seconds). Fold Change from Scramble was calculated using the 2^-ΔΔCT method with TBP as the housekeeping gene and the Scrambled SSO as the treatment control.
RNA was extracted using the Quick-RNA Miniprep kit (Zymo Research) following manufacturer's protocol. RNA was eluted in water and quantified using a Qubit fluorometer (Thermo Fisher). […] Fold Change from Scramble was calculated using the 2^-ΔΔCT method with TBP as the housekeeping gene and the Scrambled SSO as the treatment control.

ARv7 [2] = test: ARv7 level after morpholino treatment of LN95 cells (RT-qPCR); settings: 0-2.5 uM in complete media, 72 h, FIG. 6A
Description: (§1) Briefly, LN95 cells were seeded in a 12 well plate in complete media (RPMI+10% charcoal stripped FBS) at 250,000 cells per well and incubated at 37 C and 5% CO2 in a humidified incubator. After 24 hours, 0, 0.5, 1, 1.5, 2, or 2.5 uM of ARv7 morph 1 morpholino or control morpholino was diluted in complete media and added to each well. After 72 additional hours of incubation, media was removed and cells were collected in RNA lysis buffer.
(§2) RNA was extracted using the Quick-RNA Miniprep kit (Zymo Research) following manufacturer's protocol. RNA was eluted in water and quantified using a Qubit fluorometer (Thermo Fisher). Reverse transcription (RT) reactions were performed using the ABI High Capacity cDNA Reverse Transcription Kit (Thermo Fisher) using 1 ug of RNA. RT reactions were incubated following manufacturer's protocol in a SimpliAmp thermocycler (Life Technologies). […] Fold Change from Scramble was calculated using the 2^-ΔΔCT method with TBP as the housekeeping gene and the control morpholino as the treatment control.

full length AR [3] = test: Full length AR level after morpholino treatment of LN95 cells (RT-qPCR); settings: 0-2.5 uM in complete media, 72 h, FIG. 6B
Description: as §1, §2

ARv9 = ARv9 level after SSO transfection of prostate cancer cells; settings: prostate cancer cell lines LN95, VCaP; 6.25-400 nM transfected; vs Scramble/Scr control; FIG. 2
Description: (§3) For FIGS. 2 and 3, the experimental methods is described briefly. A total of 6.25, 25, 100, or 400 nM of ARv7 SSO-6, 100 nM of ARv7 SSO-[…], or 100 or 400 nM of Scrambled SSO was diluted in Opti-MEM and mixed with 2 uL Dharmafect 1 (LN95) or RNAiMax (VCaP) diluted in Opti-MEM for a total of 200 uL. The SSO-transfection reagent mixtures were incubated for 10 minutes at room temperature followed by plating in a 12 well plate. A total of 250,000 cells diluted in 800 uL Optimem were seeded atop the SSO-transfection reagent mixtures and incubated for 4 hours at 37° C. and 5% CO2 in a humidified incubator. Media was replaced with complete media after 4 hours (RPMI+10% charcoal stripped FBS for LN95 cells and DMEM+10% FBS for VCaP cells). After an additional 72 or 96 hours of incubation, media was removed and cells were collected in RNA lysis buffer or RIPA buffer containing protease inhibitor (Thermo Fisher). […] RNA was eluted in water and quantified using a Qubit fluorometer (Thermo Fisher). […] Fold Change from Scramble was calculated using the 2^-ΔΔCT method with TBP as the housekeeping gene and the Scrambled SSO as the treatment control. Protein samples were quantified using a Bradford assay (Pierce Scientific) and 25 ug of each cell extract was mixed with SDS sample buffer and submitted to SDS-PAGE. […]

LN95 cells = test: Prostate cancer cell proliferation (Incucyte % confluence) after SSO transfection; settings: 100 nM, transfected twice, 7 days, −/+ enzalutamide, vs Scr, FIG. 4
Description: As depicted in FIG. 4, ARv7 SSO-6 inhibits prostate cancer cell (LN95) proliferation. Briefly, a total of 100 nM of ARv7 SSO-6 or 100 nM of Scrambled SSO was diluted in Opti-MEM and mixed with 2 uL Dharmafect 1 for a total of 200 uL. The SSO-transfection reagent mixtures were incubated for 10 minutes at room temperature followed by plating in a 12 well plate. A total of 250,000 LN95 cells diluted in 800 uL Optimem were seeded atop the SSO-transfection reagent mixtures and incubated for 4 hours at 37 C and 5% CO2 in a humidified incubator. Media was replaced with complete media after 4 hours (RPMI+10% charcoal stripped FBS). 72 hours later cells were lifted using 0.25% trypsin and the transfection procedure was repeated. 4 hours after transfection media was replaced with complete media and cells were gently resuspended by pipetting up and down. Cells were then seeded in to a 96 well plate at 10,000 cells/well and the plate was placed in to the Incucyte S3 live cell imager (Essen Bioscience) and incubated at 37° C. and 5% CO2 for 7 days. % confluence was calculated once per day and fold change from 0 hr was calculated for each time point.

full length AR [4] = test: Full length AR level after SSO transfection of prostate cancer cells (RT-qPCR, Western blot); settings: prostate cancer cell lines LN95, VCaP; 6.25-400 nM transfected; vs Scramble/Scr control; FIG. 2
Description: as §3

In the case of “mC*mA*mG*mC*mC*mT*mT*mT*mC*mT*mT*mC*mA*mG*mG*mG*mT*mC (CAGCCTTTCTTCAGGGTC; all 2'-O-methyl, all phosphorothioate, T or U not given here) [Arv7 Cons1]”, the “ARv7 RNA (fold change from Scramble)” value (ARv7 [1]; LN95, 12.5, 25, 50 nM transfected, 72 h, vs Scrambled SSO, FIG. 5) is reported as “decreases ARv7 RNA in a dose-dependent manner”.
With “TTGCCAACCCGGAATTTTTCTAGTATGA (all phosphorodiamidate morpholino (PMO)) [ARv7 morph 1]” the “ARv7 (fold change from control morpholino)” value (ARv7 [2]) was “dose-dependent decrease” and the “full length AR” value (full length AR [3]) was “maintenance”.
In the case of “mG*mC*mC*mA*mA*mC*mC*mC*mG*mG*mA*mA*mU*mU*mU*mU*mU*mC* mU*mA*mG*mU [ARv7 SSO-6ext]”, the “ARv7 (fold change from Scramble)” value (ARv7 [1]; LN95, 100 nM transfected, FIG. 3) is reported as “decrease”.
In the case of “mG*mC*mC*mA*mA*mC*mC*mC*mG*mG*mA*mA*mU*mU*mU*mU*mU*mC [ARv7 SSO-6]”, the “ARv7 (fold change from Scramble)” value (ARv7 [1]; prostate cancer cell lines LN95, VCaP, 6.25, 25, 100, 400 nM transfected, 72 or 96 h, FIG. 2) is reported as “dose dependent decrease”, the ARv9 (ARv9) is reported as “maintenance” and the “prostate cancer cell proliferation (% confluence, fold change from 0 hr)” value (LN95 cells) is reported as “inhibits”. For the same substance, the “full length AR” value (full length AR [4]) was “maintenance”.
